Consider three compounds from patent publication US9340590B2 (priority 2011, dated 2016).

Where two headings read alike, the source gives them in different places. Positions of bridges follow the written chain, without caps; N, C: chain ends. Residues, ends and D or L forms follow the SMILES beside them.

In assay [1] the target is hNav1.5 (Homo sapiens, UniProt Q14524). The assay is described as follows: cell-based.
Assay [2] has as its target hNav1.3 (Homo sapiens, UniProt Q9NY46). Nature of the assay: cell-based. As to conditions: IonWorks Quattro, read-out: IWQ Use Nav1.3.
The mark [3] stands for this setting: clamped to −110 mV, depolarized to −10 mV, 5 min after compound, n=2.

Chain of hNav1.3 (Q9NY46 whole entry, looked up): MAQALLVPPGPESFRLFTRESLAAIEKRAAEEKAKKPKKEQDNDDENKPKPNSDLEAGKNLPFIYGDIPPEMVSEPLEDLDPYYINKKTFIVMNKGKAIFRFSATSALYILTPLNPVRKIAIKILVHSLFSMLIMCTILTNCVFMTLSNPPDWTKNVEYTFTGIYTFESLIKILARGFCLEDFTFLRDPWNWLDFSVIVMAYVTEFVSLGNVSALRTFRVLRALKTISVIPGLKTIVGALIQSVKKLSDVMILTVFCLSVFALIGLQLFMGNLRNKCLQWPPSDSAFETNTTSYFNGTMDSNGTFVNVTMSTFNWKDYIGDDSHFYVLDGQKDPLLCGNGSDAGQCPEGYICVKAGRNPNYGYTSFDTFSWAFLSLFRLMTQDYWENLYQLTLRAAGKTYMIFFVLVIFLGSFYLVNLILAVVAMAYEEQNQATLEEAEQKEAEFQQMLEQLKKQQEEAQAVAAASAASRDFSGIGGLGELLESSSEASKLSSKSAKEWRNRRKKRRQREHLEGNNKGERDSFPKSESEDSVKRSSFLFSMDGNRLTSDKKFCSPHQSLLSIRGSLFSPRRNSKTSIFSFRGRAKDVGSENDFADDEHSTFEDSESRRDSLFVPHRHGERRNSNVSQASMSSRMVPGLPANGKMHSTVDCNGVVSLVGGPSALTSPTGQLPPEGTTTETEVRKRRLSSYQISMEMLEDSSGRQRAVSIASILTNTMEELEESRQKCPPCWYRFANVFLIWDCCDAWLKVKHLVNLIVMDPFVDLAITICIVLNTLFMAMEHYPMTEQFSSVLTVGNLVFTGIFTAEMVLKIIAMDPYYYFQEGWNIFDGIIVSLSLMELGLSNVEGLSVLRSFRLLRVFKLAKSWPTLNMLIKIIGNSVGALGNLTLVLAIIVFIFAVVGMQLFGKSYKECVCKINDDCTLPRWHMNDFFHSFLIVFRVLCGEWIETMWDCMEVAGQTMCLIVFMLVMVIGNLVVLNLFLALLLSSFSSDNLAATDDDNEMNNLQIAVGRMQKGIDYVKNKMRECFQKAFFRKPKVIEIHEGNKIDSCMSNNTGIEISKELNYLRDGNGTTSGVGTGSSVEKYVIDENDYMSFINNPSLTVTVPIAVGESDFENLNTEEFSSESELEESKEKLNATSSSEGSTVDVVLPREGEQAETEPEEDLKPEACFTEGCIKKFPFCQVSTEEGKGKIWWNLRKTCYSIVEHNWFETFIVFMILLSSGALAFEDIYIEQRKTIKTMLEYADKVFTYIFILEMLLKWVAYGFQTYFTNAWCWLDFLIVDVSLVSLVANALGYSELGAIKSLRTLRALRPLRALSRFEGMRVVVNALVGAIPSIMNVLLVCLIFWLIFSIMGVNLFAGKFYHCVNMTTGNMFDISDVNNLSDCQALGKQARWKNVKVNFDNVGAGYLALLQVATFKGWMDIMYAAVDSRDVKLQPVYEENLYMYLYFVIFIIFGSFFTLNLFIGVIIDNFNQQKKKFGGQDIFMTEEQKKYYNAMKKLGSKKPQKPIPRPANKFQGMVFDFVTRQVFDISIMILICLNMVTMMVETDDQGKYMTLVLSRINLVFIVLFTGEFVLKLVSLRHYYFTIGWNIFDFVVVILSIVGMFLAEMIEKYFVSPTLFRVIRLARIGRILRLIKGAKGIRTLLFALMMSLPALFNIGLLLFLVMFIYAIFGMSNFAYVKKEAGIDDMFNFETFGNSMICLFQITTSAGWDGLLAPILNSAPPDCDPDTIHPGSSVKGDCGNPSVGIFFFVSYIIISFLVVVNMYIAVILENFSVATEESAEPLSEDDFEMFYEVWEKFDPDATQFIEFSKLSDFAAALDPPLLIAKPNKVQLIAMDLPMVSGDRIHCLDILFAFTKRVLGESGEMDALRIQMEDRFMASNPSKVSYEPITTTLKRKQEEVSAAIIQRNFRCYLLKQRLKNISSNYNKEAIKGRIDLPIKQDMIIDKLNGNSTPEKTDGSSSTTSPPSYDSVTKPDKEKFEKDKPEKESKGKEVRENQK
Chain of hNav1.5 (Q14524 whole entry, looked up): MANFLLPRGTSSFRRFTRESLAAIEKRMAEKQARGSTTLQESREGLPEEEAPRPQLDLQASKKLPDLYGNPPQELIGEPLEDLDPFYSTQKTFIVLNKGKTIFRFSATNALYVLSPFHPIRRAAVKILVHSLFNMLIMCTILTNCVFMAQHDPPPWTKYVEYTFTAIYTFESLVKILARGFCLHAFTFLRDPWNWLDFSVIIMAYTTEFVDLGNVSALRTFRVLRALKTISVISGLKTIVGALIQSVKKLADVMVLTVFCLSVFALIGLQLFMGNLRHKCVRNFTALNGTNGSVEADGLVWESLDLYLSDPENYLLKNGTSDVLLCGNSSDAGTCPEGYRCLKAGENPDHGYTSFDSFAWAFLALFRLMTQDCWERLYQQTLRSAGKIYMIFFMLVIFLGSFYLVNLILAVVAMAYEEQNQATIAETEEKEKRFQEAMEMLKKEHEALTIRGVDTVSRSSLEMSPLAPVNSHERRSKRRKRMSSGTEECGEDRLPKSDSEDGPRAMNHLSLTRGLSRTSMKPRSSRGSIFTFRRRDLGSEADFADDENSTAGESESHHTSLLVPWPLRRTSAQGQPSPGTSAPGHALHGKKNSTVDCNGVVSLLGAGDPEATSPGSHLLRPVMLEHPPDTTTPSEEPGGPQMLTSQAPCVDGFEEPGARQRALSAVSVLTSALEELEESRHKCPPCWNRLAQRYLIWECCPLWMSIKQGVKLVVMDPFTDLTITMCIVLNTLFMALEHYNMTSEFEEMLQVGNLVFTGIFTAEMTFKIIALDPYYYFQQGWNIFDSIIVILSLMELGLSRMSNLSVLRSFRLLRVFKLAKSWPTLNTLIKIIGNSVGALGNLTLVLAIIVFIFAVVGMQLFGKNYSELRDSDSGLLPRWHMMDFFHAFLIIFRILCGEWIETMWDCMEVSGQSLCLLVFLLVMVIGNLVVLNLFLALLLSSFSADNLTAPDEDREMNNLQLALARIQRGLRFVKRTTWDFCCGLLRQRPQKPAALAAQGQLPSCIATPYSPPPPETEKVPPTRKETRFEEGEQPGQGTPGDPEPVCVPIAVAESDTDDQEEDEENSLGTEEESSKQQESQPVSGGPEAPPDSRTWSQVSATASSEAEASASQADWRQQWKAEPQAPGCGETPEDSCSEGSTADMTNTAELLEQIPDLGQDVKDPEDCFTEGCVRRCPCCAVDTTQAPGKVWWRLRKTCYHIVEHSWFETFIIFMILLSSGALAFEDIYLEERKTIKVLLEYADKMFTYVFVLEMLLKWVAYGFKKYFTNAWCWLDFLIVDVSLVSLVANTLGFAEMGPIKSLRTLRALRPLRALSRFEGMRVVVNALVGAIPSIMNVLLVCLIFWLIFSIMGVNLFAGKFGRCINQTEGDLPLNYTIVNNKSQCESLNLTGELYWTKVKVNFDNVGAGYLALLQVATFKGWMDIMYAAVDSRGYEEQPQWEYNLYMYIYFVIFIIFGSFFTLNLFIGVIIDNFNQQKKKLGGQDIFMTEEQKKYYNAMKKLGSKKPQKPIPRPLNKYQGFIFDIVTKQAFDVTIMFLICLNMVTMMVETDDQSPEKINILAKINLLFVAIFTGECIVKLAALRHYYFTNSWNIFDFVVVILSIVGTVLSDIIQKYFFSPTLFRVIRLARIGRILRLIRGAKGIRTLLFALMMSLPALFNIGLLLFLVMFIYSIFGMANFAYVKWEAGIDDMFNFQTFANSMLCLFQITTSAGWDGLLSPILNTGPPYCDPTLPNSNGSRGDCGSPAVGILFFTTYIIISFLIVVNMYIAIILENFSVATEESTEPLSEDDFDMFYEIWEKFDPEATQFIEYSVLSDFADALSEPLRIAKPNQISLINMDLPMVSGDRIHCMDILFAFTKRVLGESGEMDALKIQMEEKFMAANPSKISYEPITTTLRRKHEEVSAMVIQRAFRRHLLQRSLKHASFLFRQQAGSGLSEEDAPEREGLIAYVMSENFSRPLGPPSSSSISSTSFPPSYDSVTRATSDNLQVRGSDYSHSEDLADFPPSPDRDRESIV

For `CSCC[C@@H]1NC(=O)[C@H](Cc2ccccc2)NC(=O)CNC(=O)[C@H](CC(C)C)NC(=O)[C@@H](NC(=O)[C@@H](N)CC(=O)O)CSSC[C@@H]2NC(=O)[C@@H]3CSSC[C@@H](C(=O)N[C@@H](CCCCN)C(=O)N[C@@H](Cc4ccc(O)cc4)C(=O)N[C@H](C(=O)N[C@@H](Cc4ccccc4)C(N)=O)C(C)C)NC(=O)[C@H](Cc4c[nH]c5ccccc45)NC(=O)[C@H](CCCCN)NC(=O)[C@H](Cc4cnc[nH]4)NC(=O)[C@H]([C@@H](C)O)NC(=O)[C@H](CCCNC(=N)N)NC(=O)[C@H](CO)NC(=O)[C@H](CSSC[C@H](NC(=O)[C@H](CCCCN)NC(=O)[C@H](CCCNC(=N)N)NC1=O)C(=O)N[C@@H](CC(=O)O)C(=O)N1CCC[C@H]1C(=O)N[C@@H](CC(=O)O)C(=O)N[C@@H](CC(N)=O)C(=O)N[C@@H](CC(=O)O)C(=O)N[C@@H](CCCCN)C(=O)N3)NC(=O)[C@H](C(C)C)NC(=O)[C@H](CC(C)C)NC(=O)[C@H](CC(N)=O)NC(=O)[C@@H]1CCCN1C(=O)[C@H](CCCNC(=N)N)NC2=O` [SEQ ID NO: 119, [Asp10]GpTx-1] (H-DCLGFMRKCDPDNDKCCRPNLVCSRTHKWCKYVF-NH2; disulfide 2-17, 9-23, 16-30), the IC50 was 11.3 µM in assay [1] (IonWorks Quattro, Use, read-out: IWQ Use Nav1.5) and 0.16 µM in assay [2] (Use).

As to `CC[C@H](C)[C@@H]1NC(=O)[C@@H]2CSSC[C@@H]3NC(=O)[C@H](C(C)C)NC(=O)[C@H](CC(C)C)NC(=O)[C@H](CC(N)=O)NC(=O)[C@@H]4CCCN4C(=O)[C@H](CCCNC(=N)N)NC(=O)[C@H](CSSC[C@H](NC(=O)[C@@H](N)CC(=O)O)C(=O)N[C@@H](CC(C)C)C(=O)N[C@@H](C)C(=O)N[C@@H](Cc4ccccc4)C(=O)N[C@@H](CCSC)C(=O)N[C@@H](CCCNC(=N)N)C(=O)N[C@@H](CCCCN)C(=O)N2)NC(=O)[C@H](CSSC[C@@H](C(=O)N[C@@H](CCCCN)C(=O)N[C@@H](Cc2ccc(O)cc2)C(=O)N[C@H](C(=O)N[C@@H](Cc2ccccc2)C(N)=O)C(C)C)NC(=O)[C@H](Cc2c[nH]c4ccccc24)NC(=O)[C@H](CCCCN)NC(=O)[C@H](Cc2cnc[nH]2)NC(=O)[C@H]([C@@H](C)O)NC(=O)[C@H](CCCNC(=N)N)NC(=O)[C@H](CO)NC3=O)NC(=O)[C@H](CCCCN)NC(=O)[C@H](CC(=O)O)NC(=O)[C@H](CC(N)=O)NC(=O)[C@H](CC(=O)O)NC(=O)[C@@H]2CCCN2C1=O` [SEQ ID NO: 141] (H-DCLAFMRKCIPDNDKCCRPNLVCSRTHKWCKYVF-NH2; disulfide 2-17, 9-23, 16-30), the IC50 in assay [1] (IWQ Use Nav1.5) was determined as 11.3 µM; in assay [2] (setting [3]) it was 0.21 µM.

Consider `CC[C@H](C)[C@@H]1NC(=O)[C@@H]2CSSC[C@@H]3NC(=O)[C@H](C(C)C)NC(=O)[C@H](CC(C)C)NC(=O)[C@H](CC(N)=O)NC(=O)[C@@H]4CCCN4C(=O)[C@H](CCCNC(=N)N)NC(=O)[C@H](CSSC[C@H](NC(=O)[C@@H](N)CC(=O)O)C(=O)N[C@@H](CC(C)C)C(=O)NCC(=O)N[C@@H](Cc4ccccc4)C(=O)N[C@@H](CCC(=O)O)C(=O)N[C@@H](CCCNC(=N)N)C(=O)N[C@@H](CCCCN)C(=O)N2)NC(=O)[C@H](CSSC[C@@H](C(=O)N[C@@H](CCCCN)C(=O)N[C@@H](Cc2ccc(O)cc2)C(=O)N[C@H](C(=O)N[C@@H](Cc2ccccc2)C(N)=O)C(C)C)NC(=O)[C@H](Cc2c[nH]c4ccccc24)NC(=O)[C@H](CCCCN)NC(=O)[C@H](Cc2cnc[nH]2)NC(=O)[C@H]([C@@H](C)O)NC(=O)[C@H](CCCNC(=N)N)NC(=O)[C@H](CO)NC3=O)NC(=O)[C@H](CCCCN)NC(=O)[C@H](CC(=O)O)NC(=O)[C@H](CC(N)=O)NC(=O)[C@H](CC(=O)O)NC(=O)[C@@H]2CCCN2C1=O` [SEQ ID NO: 144] (H-DCLGFERKCIPDNDKCCRPNLVCSRTHKWCKYVF-NH2; disulfide 2-17, 9-23, 16-30), for which the IC50 was 9.39 µM in assay [1] (IonWorks Quattro, clamped to −110 mV, depolarized to −10 mV, 5 min after compound, n=2, read-out: IWQ Use Nav1.5) and 20.4 µM in assay [2] (setting [3]).
